Source: ChEMBL document CHEMBL4602715, “Efficacy and Tolerability of Pyrazolo[1,5-a]pyrimidine RET Kinase Inhibitors for the Treatment of Lung Adenocarcinoma” (ACS Med Chem Lett, 2020)
Converted amounts (≈) assume the structure as drawn. The source made the active and inactive calls. The calls are words filed in the database; no cut-off is given here.

Experiments:
[1] = test system: LC-2-ad; experiment: Cytotoxicity against human LC2/ad cells assessed as reduction in cell viability incubated for 6 days by CellTiter Glo assay; assay type: cell-based; details: 144 h
[2] = AUC in BALB/c mouse at 5 mg/kg, iv measured upto 24 hrs by LC-MS/MS analysis; assay type: ADME, organism-based; set-up: dose 5 mg/kg, time < 24 hr, route intravenous; details: in vivo
[3] = Toxicity in CD-1 mouse assessed as marginal zone depletion in spleen at 10 mg/kg, po qd for 4 weeks by histopathological analysis; assay type: organism-based; details: in vivo, 672 h
[4] = Volume of distribution at steady state in BALB/c mouse at 5 mg/kg, iv measured upto 24 hrs by LC-MS/MS analysis; assay type: ADME, organism-based; details: in vivo, read-out: Vdss
[5] = Toxicity in CD-1 mouse assessed as neuronal changes in brain at 10 mg/kg, po qd for 4 weeks by histopathological analysis; assay type: organism-based; details: in vivo, 672 h
[6] = Aqueous solubility of compound at pH 6.8 incubated for 24 hrs by HPLC/UV analysis; assay type: physicochemical
[7] = Toxicity in CD-1 mouse assessed as changes in lung at 10 mg/kg, po qd for 4 weeks by histopathological analysis; assay type: organism-based; details: in vivo, 672 h
[8] = Half life in BALB/c mouse at 5 mg/kg, iv measured upto 24 hrs by LC-MS/MS analysis; assay type: ADME, organism-based; details: in vivo
[9] = Cmax in BALB/c mouse at 5 mg/kg, iv measured upto 24 hrs by LC-MS/MS analysis; assay type: ADME, organism-based; set-up: dose 5 mg/kg, route intravenous; details: in vivo
[10] = Toxicity in CD-1 mouse assessed as changes in GI neurons at 10 mg/kg, po qd for 4 weeks by histopathological analysis; assay type: organism-based; details: in vivo, 672 h
[11] = Toxicity in CD-1 mouse assessed as pancreatic vacuolation at 10 mg/kg, po qd for 4 weeks by histopathological analysis; assay type: organism-based; details: in vivo, 672 h
[12] = Clearance in BALB/c mouse at 5 mg/kg, iv measured upto 24 hrs by LC-MS/MS analysis; assay type: ADME, organism-based; details: in vivo
[13] = Toxicity in CD-1 mouse assessed as decrease in germinal centre cellularity in lymph nodes at 10 mg/kg, po qd for 4 weeks by histopathological analysis; assay type: organism-based; details: in vivo, 672 h
[14] = Oral bioavailability in BALB/c mouse at 20 mg/kg measured upto 24 hrs by LC-MS/MS analysis; assay type: ADME, organism-based; details: in vivo
[15] = test system: Rattus norvegicus; experiment: Antitumor activity against rat RIE cells transfected with KIF5B/RET xenografted in Harlan Foxn1 nude mouse assessed as inhibition of tumor growth at 3 mg/kg, po administered bid for 8 days; assay type: functional, organism-based
[16] = Toxicity in Harlan Foxn1 nude mouse xenografted with rat RIE cells transfected with KIF5B/RET assessed as adverse events at 3 to 30 mg/kg, po administered bid for 8 days; assay type: organism-based; details: in vivo, 192 h
[17] = test system: Mus musculus; experiment: In vivo inhibition of KIF5B/RET transfected in rat RIE cells xenografted in Harlan Foxn1 nude mouse assessed as reduction in RET phosphorylation at 30 mg/kg, po administered bid for 8 days and measured on day 8 after 5 hrs of dosing by Western blot analysis; assay type: functional, organism-based
[18] = AUC in BALB/c mouse at 20 mg/kg, po measured upto 24 hrs by LC-MS/MS analysis; assay type: ADME, organism-based; set-up: dose 20 mg/kg, time < 24 hr, route oral; details: in vivo
[19] = molecular target: T1, Voltage-gated inwardly rectifying potassium channel KCNH2 (Homo sapiens, UniProt Q12809); experiment: Inhibition of human ERG expressed in human embryonic kidney cells by manual patch clamp assay; assay type: cell-based; details: read-out: IC50
T1 sequence (Q12809 whole entry): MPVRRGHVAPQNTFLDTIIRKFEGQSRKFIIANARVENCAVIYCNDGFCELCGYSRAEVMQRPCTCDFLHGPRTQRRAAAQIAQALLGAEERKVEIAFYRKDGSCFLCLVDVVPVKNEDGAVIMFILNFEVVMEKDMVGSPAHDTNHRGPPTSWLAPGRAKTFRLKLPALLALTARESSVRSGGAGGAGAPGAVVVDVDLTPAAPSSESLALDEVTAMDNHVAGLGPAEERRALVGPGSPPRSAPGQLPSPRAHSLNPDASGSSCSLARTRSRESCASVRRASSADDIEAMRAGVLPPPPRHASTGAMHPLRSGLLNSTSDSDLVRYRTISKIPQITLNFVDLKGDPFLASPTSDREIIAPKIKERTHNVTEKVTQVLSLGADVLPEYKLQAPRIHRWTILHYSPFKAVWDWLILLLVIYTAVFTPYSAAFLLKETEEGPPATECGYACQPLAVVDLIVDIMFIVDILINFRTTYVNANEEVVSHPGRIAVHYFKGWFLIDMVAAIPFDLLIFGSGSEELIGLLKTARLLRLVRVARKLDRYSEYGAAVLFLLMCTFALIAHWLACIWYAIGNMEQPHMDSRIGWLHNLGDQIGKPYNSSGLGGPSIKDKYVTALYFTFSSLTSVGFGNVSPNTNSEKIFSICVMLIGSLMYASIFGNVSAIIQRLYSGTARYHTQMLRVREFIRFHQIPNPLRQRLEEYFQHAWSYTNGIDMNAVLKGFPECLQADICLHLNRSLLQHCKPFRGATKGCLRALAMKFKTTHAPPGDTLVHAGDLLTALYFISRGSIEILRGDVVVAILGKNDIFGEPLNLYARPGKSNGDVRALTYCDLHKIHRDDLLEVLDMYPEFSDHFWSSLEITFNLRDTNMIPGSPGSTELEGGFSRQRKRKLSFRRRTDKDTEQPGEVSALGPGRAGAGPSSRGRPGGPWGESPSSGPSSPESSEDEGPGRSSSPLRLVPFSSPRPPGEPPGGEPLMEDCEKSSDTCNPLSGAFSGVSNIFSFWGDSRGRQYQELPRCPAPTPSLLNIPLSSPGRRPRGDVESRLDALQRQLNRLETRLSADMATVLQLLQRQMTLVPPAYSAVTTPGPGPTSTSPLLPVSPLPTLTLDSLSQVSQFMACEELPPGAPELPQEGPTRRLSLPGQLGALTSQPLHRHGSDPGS

[20] = molecular target: T1, Voltage-gated inwardly rectifying potassium channel KCNH2; experiment: Displacement of [3H]-dofetilide from human ERG expressed in CHO cells incubated for 90 mins by microbeta scintillation counting method; assay type: cell-based
[21] = Ratio of AUC in BALB/c mouse brain to plasma at 20 mg/kg, po measured upto 24 hrs by LC-MS/MS analysis; assay type: ADME, organism-based; details: brain and plasma
[22] = Cmax in BALB/c mouse at 20 mg/kg, po measured upto 24 hrs by LC-MS/MS analysis; assay type: ADME, organism-based; set-up: dose 20 mg/kg, route oral; details: in vivo
[23] = Drug uptake in tumor of Harlan Foxn1 nude mouse xenografted with rat RIE cells transfected with KIF5B/RET at 3 to 30 mg/kg, po administered bid for 8 days by LC-MS/MS analysis; assay type: ADME, organism-based, Neoplasm; details: in vivo, 192 h
[24] = test system: Mus musculus; experiment: In vivo inhibition of KIF5B/RET transfected in rat RIE cells xenografted in Harlan Foxn1 nude mouse assessed as reduction in RET phosphorylation at 30 mg/kg, po administered bid for 8 days and measured on day 8 after 24 hrs of dosing by Western blot analysis; assay type: functional, organism-based
[25] = test system: Rattus norvegicus; experiment: Antitumor activity against rat RIE cells transfected with KIF5B/RET xenografted in Harlan Foxn1 nude mouse assessed as tumor regression at 30 mg/kg, po administered bid for 8 days; assay type: functional, organism-based
[26] = Half life in BALB/c mouse at 20 mg/kg, po measured upto 24 hrs by LC-MS/MS analysis; assay type: ADME, organism-based; details: in vivo
[27] = Drug uptake in plasma of Harlan Foxn1 nude mouse xenografted with rat RIE cells transfected with KIF5B/RET at 3 to 30 mg/kg, po administered bid for 8 days by LC-MS/MS analysis; assay type: ADME, organism-based; details: in vivo, 192 h
[28] = Ratio of Cmax in BALB/c mouse brain to plasma at 20 mg/kg, po measured upto 24 hrs by LC-MS/MS analysis; assay type: ADME, organism-based; details: brain and plasma
[29] = test system: Rattus norvegicus; experiment: Antitumor activity against rat RIE cells transfected with KIF5B/RET xenografted in Harlan Foxn1 nude mouse assessed as tumor stasis at 10 mg/kg, po administered bid for 8 days; assay type: functional, organism-based
[30] = test system: BaF3; experiment: Cytotoxicity against mouse BA/F3 cells assessed as reduction in cell viability incubated for 48 hrs by brightglo-luciferase reporter gene assay; assay type: cell-based; details: BaF3, 48 h
[31] = molecular target: Bcr/Abl fusion protein (Homo sapiens, UniProt P00519); experiment: Inhibition of BCR/ABL (unknown origin) transfected in mouse Ba/F3 cells assessed as reduction in cell viability incubated for 48 hrs by brightglo-luciferase reporter gene assay; assay type: cell-based, BaF3
Bcr/Abl fusion protein, sequence (P00519 whole entry, the tested form may be a part): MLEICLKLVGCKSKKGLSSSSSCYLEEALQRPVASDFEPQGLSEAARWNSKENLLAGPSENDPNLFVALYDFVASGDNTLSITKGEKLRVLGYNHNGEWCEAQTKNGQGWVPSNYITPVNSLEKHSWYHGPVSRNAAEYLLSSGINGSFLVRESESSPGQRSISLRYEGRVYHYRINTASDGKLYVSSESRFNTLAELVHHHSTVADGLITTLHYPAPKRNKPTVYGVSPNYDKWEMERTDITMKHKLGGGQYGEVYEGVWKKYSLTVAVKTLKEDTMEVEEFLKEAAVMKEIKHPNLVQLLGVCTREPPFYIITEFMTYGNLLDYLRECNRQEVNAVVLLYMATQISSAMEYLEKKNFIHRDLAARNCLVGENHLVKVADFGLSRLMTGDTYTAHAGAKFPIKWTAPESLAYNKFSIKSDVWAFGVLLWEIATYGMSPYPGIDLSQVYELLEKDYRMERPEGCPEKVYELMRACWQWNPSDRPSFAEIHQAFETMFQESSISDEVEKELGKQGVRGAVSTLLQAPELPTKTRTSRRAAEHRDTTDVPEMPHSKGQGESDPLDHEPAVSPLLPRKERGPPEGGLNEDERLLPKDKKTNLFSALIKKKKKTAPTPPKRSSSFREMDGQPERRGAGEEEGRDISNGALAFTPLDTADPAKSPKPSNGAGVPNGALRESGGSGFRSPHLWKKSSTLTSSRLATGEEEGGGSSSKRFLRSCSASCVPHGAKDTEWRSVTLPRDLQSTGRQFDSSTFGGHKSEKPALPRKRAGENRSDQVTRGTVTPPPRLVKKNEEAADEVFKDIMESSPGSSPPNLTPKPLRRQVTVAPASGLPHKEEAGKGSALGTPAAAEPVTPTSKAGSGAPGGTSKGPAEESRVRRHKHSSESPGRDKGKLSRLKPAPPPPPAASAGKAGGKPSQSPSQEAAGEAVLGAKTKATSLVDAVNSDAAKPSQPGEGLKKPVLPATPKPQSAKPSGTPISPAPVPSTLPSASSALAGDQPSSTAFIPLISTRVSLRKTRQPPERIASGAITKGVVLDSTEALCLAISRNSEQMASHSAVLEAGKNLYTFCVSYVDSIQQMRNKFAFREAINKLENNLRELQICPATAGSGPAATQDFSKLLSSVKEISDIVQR
Bcr/Abl fusion protein, sequence (P11274 whole entry, further chain, the tested form may be a part): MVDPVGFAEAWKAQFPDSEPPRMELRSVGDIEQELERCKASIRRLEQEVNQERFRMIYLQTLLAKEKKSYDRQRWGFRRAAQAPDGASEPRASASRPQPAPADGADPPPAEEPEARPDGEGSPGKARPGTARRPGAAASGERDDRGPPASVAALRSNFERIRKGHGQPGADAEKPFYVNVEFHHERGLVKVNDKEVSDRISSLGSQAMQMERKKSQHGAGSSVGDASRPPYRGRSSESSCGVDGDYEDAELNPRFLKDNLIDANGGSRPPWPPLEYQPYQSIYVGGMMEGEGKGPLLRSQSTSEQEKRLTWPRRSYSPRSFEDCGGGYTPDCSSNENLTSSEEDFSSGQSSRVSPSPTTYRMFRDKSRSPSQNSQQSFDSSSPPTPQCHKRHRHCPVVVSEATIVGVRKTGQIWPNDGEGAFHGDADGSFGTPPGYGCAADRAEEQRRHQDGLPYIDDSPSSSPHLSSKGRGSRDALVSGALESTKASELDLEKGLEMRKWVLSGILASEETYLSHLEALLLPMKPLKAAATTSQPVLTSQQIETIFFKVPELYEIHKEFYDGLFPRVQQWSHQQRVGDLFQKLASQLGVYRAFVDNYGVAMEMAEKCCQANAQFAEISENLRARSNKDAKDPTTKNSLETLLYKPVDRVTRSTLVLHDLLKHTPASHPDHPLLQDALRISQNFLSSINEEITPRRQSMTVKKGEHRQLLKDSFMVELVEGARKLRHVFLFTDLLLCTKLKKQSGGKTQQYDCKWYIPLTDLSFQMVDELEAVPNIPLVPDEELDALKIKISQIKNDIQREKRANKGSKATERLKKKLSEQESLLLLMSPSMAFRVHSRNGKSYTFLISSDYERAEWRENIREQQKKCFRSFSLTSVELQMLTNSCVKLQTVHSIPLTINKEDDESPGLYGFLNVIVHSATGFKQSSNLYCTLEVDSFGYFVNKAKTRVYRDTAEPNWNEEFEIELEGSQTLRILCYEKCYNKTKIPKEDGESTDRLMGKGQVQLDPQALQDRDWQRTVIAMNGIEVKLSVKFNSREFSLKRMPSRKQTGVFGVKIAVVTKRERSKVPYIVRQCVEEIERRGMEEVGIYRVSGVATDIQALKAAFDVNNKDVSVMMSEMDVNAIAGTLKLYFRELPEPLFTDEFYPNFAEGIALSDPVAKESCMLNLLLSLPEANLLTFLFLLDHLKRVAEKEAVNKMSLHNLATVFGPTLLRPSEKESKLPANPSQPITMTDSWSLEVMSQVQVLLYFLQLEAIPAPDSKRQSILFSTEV

[32] = test system: Rattus norvegicus; experiment: Antitumor activity against rat RIE cells transfected with KIF5B/RET xenografted in Harlan Foxn1 nude mouse assessed as tumor stasis at 3 mg/kg, po qd for 10 days; assay type: functional, organism-based
[33] = test system: Mus musculus; experiment: In vivo inhibition of KIF5B/RET transfected in rat RIE cells xenografted in Harlan Foxn1 nude mouse assessed as reduction in intratumoral RET phosphorylation at 1 to 3 mg/kg, po qd for 10 days and measured after 24 hrs post-last dose by Western blot analysis; assay type: functional, organism-based
[34] = test system: LC-2-ad; experiment: Antitumor activity against human LC2/ad cells xenografted in NSG mouse assessed as reduction in tumor volume at 10 mg/kg, po qd for 21 days measured following cessation of drug treatment; assay type: functional, organism-based
[35] = test system: Rattus norvegicus; experiment: Antitumor activity against rat RIE cells transfected with KIF5B/RET xenografted in Harlan Foxn1 nude mouse assessed as tumor regression at 10 mg/kg, po qd for 10 days; assay type: functional, organism-based
[36] = test system: Rattus norvegicus; experiment: Antitumor activity against rat RIE cells transfected with KIF5B/RET xenografted in Harlan Foxn1 nude mouse assessed as reduction in visible vasculature at 10 to 60 mg/kg, po qd for 14 days; assay type: functional, organism-based
[37] = test system: Mus musculus; experiment: In vivo inhibition of KIF5B/RET transfected in rat RIE cells xenografted in Harlan Foxn1 nude mouse assessed as reduction in intratumoral RET phosphorylation at 1 to 3 mg/kg, po qd for 10 days and measured after 5 hrs post-last dose by Western blot analysis; assay type: functional, organism-based
[38] = test system: Rattus norvegicus; experiment: Antitumor activity against rat RIE cells transfected with KIF5B/RET xenografted in Harlan Foxn1 nude mouse assessed as tumor growth inhibition at 1 mg/kg, po qd for 10 days; assay type: functional, organism-based
[39] = test system: Rattus norvegicus; experiment: Antitumor activity against rat RIE cells transfected with KIF5B/RET xenografted in Harlan Foxn1 nude mouse assessed as tumor regression at 10 to 60 mg/kg, po qd for 14 days; assay type: functional, organism-based

Structure (SMILES): COc1ccc(-c2cnn3c(N)c(-c4ccccc4)c(NC4CC(C)(C)N(C)C(C)(C)C4)nc23)cc1OC [listing 1 of 2 here]
- IC50 [1]: 1.5 µM
- AUC at 24 h [2]: 3.2 µM·h
- Activity [3]: Toxic
- Vd [4]: 13 L/kg
- Activity [5]: Non-Toxic
- solubility at 24 h [6]: 48 µM (≈ 24.7 µg/mL)
- Activity [7]: Non-Toxic
- half-life [8]: 3.9 h
- Cmax [9]: 1100 nM
- Activity [10]: Non-Toxic
- Activity [11]: Toxic
- clearance [12]: 51 mL/min/kg
- Activity [13]: Toxic

Structure (SMILES): COc1ccc(-c2cnn3c(N)c(-c4ccccc4)c(OCCCN(C)C)nc23)cc1OC
- IC50 [1]: 2.8 µM
- solubility at 24 h [6]: 88 µM (≈ 39.4 µg/mL)

Structure (SMILES): CN1C(C)(C)CC(Nc2nc3c(-c4ccc(C(=O)N5C[C@@H]6C[C@H]5CO6)cc4)cnn3c(N)c2-c2ccccc2)CC1(C)C
- bioavailability [14]: 64%
- Activity [15]: Active
- IC50 [1]: 3.4 µM
- Activity [16]: Non-Toxic
- AUC at 24 h [2]: 2.6 µM·h
- Vd [4]: 7.8 L/kg
- inhibition [17]: Active
- AUC at 24 h [18]: 6.8 µM·h
- IC50 [19]: 2.8 µM
- IC50 [20]: 4.7 µM
- Kp at 24 h [21]: 0.15
- Cmax [22]: 880 nM
- half-life [8]: 1.8 h
- Drug uptake [23]: Active
- Cmax [9]: 1600 nM
- inhibition [24]: inactive
- Activity [25]: Active
- half-life [26]: 2.5 h
- clearance [12]: 54 mL/min/kg
- Drug uptake [27]: Active
- Kp at 24 h [28]: 0.13
- Activity [29]: Active

Structure (SMILES): COc1ccc(-c2cnn3c(N)c(-c4ccccc4)c(OC4CCN(C)CC4)nc23)cc1OC
- IC50 [1]: 1.6 µM
- solubility at 24 h [6]: 7.1 µM (≈ 3.26 µg/mL)
- IC50 [30]: > 11 µM
- IC50 [31]: 0.87 µM

Structure (SMILES): COc1ccc(-c2cnn3c(N)c(-c4ccccc4)c(NCCCN(C)C)nc23)cc1OC
- IC50 [1]: > 10 µM
- solubility at 24 h [6]: > 175 µM

Structure (SMILES): COc1ccc(-c2cnn3c(N)c(-c4ccccc4)c(NC4CC(C)(C)N(C)C(C)(C)C4)nc23)cc1OC [listing 2 of 2 here]
- Activity [32]: Active
- inhibition [33]: inactive
- Activity [34]: Active
- Activity [35]: Active
- Activity [36]: Active
- inhibition [37]: Active
- Activity [38]: Active
- Activity [39]: Active
